Experimental findings from patent US8729258B2, “Luminescent macrocyclic lanthanide complexes” (The Regents of the University of California, priority 2006, dated 2014) are described below.

In series [1] the target is streptavidin (Streptomyces avidinii, UniProt P22629). Nature of the series: Non-specific interaction with protein (streptavidin), consecutive G50 gel filtration spin columns. The class given is binding. The note with it: second and third consecutive gel filtration spin columns after conjugation of activated ester to streptavidin. On the procedure: It was therefore important to determine the tendency of the novel ligands to non-specifically interact with proteins. Sulfo-NHS ester and NHS ester derivatives of compound 5 were synthesized and conjugated to streptavidin. For comparison, the NHS ester of ligand 2 was also conjugated to streptavidin. Streptavidin was equilibrated in carbonate buffer, pH 9, at a concentration of approximately 130 μM. A DMF solution of the activated esters of each ligand was added to the protein at a final concentration of approximately 1 mM. The mixtures were allowed to incubate at 4° C. for 1 h. The metal is added either before or after conjugation of the ligand to the protein. Non-conjugated ligand was separated from conjugated protein using a G50 gel filtration centrifugal spin column technique (Penefsky, H. S, Methods Enzymol 1979, 56:527-30). This technique dilutes protein solutions to a lesser extent than conventional gel filtration techniques. Consecutive spin columns were run on a single protein sample solution to evaluate the extent of non-specific absorption of ligand. Following a single gel filtration separation, most of the excess ligand is removed and left at the top of the gel bed. A second spin column treatment should leave no further ligand at the top of the second column unless non-covalent association of the ligand with the protein occurs.

The nature of series [2]: Kinetic stability of Tb complexes in various media at room temperature. The note with it: 5 nM Tb-complex, various media incl. 1% acetic acid and 1 mM EDTA, 0.05% Tween-80, room temperature.
Protocol: In order to investigate the stability of macrocyclic ligands further, the stabilities of different Tb-complexes were determined using a variety of different media, including 1% acetic acid and 1 mM EDTA. […] Each stock solution was then diluted 200× into different test solutions in polypropylene microcentrifuge tubes to a final concentration of 5 nM Tb-complex. Each test solution also contained 0.05% Tween-80. The test solutions were allowed to incubate at room temperature. Samples were taken at indicated time points, evaluated in triplicate and luminescence was recorded using standard time-resolved luminescence settings and 340 nm and 490 excitation and emission filters, respectively.

Structures are written as SMILES.

Sequence of streptavidin (P22629 25-183): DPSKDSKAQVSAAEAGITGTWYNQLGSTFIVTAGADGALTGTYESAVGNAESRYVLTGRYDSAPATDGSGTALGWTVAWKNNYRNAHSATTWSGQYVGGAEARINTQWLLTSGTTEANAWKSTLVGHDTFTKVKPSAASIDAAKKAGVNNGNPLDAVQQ

In the case of `CNC(=O)c1cc(C(=O)NC)c(O)c(C(=O)NCCN(CCNC(=O)c2cc(C(=O)NC)cc(C(=O)NC)c2O)CCN(CCNC(=O)c2cc(C(=O)NC)cc(C(=O)NC)c2O)CCNC(=O)c2cc(C(=O)NCCC(=O)O)cc(C(=O)NC)c2O)c1` [compound 2, reference compound], in series [1], the “residual luminescence of ligand left at the top of the gel bed” value was “high degree of residual luminescence”.

Turning to `NCCN1CCNC(=O)c2cccc(c2O)C(=O)NCCN(CCNC(=O)c2cccc(C(N)=O)c2O)CCN2CCNC(=O)c3cccc(c3O)C(=O)NCCN(CCNC(=O)c3cccc(c3O)C(=O)NCC2)CC1` [compound 3], the “stability of terbium complex compared to non-restrained ligand (1)” value in series [2] was “significant increase in stability”. On to `O=C(O)CCCC(=O)NCCCCC1CN2CCNC(=O)c3cccc(c3O)C(=O)NCCN(CCNC(=O)c3cccc(c3O)C(=O)N1)CCN1CCNC(=O)c3cccc(c3O)C(=O)NCCN(CCNC(=O)c3cccc(c3O)C(=O)NCC1)CC2` (stereo not drawn) [compound 5a, GlutarLysBH(2,2)IAM], for which the “stability of terbium complex compared to non-restrained ligand (1)” value in series [2] was “significant increase in stability”.
